Read-outs that look alike come from different tables or passages of the source. Bounds are passed on as bounds.

A word on the IC50: it is the concentration that inhibits the measured activity by half.

One assay concerns the target human recombinant Btk (Homo sapiens (Human), UniProt Q06187). As to the kind of experiment: Human Recombinant Btk Enzyme Assay. The following applies: for Potency Difference Btk: ratio of IC50 value for the Comparative Example to that for the corresponding Example: Comparative Example (stereoisomer) IC50 / Example IC50. In kind it is biochemical. The protocol: Human Recombinant Btk Enzyme Assay
To V-bottom 384-well plates were added test compounds, human recombinant Btk (1 nM, Invitrogen Corporation), fluoresceinated peptide (1.5 μM), ATP (20 μM), and assay buffer (20 mM HEPES pH 7.4, 10 mM MgCl2, 0.015% Brij 35 surfactant and 4 mM DTT in 1.6% DMSO), with a final volume of 30 μL. After incubating at room temperature for 60 min, the reaction was terminated by adding 45 μL of 35 mM EDTA to each sample. The reaction mixture was analyzed on the Caliper LABCHIP® 3000 (Caliper, Hopkinton, Mass.) by electrophoretic separation of the fluorescent substrate and phosphorylated product. […] Compounds were dissolved at 10 mM in DMSO and evaluated at eleven concentrations.

The next assay relates to Ramos RA1 B cells. As to the kind of experiment: Ramos FLIPR Assay (intracellular calcium flux, anti-human IgM stimulated). In kind it is cell-based. To be noted: for IC50: Ramos; for Potency Difference Ramos: ratio of IC50 value for the Comparative Example to that for the corresponding Example: Comparative Example (stereoisomer) IC50 / Example IC50. The protocol: Ramos FLIPR Assay […] Dye-loaded cells were pelleted (Beckmann GS-CKR, 1200 rpm, room temperature, 5 min) and resuspended at room temperature in RPMI minus phenol red with 50 mM HEPES and 10% FBS to a density of 1×10^6 cells/mL. 150 μL aliquots (150,000 cells/well) were plated into 96 well poly-D-lysine coated assay plates (BD 35 4640) and briefly centrifuged (Beckmann GS-CKR 800 rpm, 5 min, without brake). Next, 50 μL compound dilutions in 0.4% DMSO/RPMI minus phenol red+50 mM HEPES+10% FBS were added to the wells and the plate was incubated at room temperature in the dark for 1 hour. The assay plate was briefly centrifuged as above prior to measuring calcium levels. Using the […] (Molecular Devices), cells were stimulated by adding goat anti-human IgM (Invitrogen AHI0601) to 2.5 μg/mL. Changes in intracellular calcium concentrations were measured for 180 seconds and percent inhibition was determined relative to peak calcium levels seen in the presence of stimulation only. The Ramos assay measures the ability of a compound to move through the cell membrane into the cell interior. A lower IC50 value indicates a greater ability to move into the cell interior.

Setting [1] is: Table 3, ATP 20 μM, 60 min room temperature, read-out: Btk IC50 value.
Where [2] appears, read: Table 4, read-out: Example Btk IC50.
[3] abbreviates: Homo sapiens, Table 4, read-out: Example Ramos IC50.
[4] abbreviates: Table 3, calcium flux, goat anti-human IgM 2.5 μg/mL, read-out: Ramos IC50 value.

Chain of human recombinant Btk (Q06187 whole entry): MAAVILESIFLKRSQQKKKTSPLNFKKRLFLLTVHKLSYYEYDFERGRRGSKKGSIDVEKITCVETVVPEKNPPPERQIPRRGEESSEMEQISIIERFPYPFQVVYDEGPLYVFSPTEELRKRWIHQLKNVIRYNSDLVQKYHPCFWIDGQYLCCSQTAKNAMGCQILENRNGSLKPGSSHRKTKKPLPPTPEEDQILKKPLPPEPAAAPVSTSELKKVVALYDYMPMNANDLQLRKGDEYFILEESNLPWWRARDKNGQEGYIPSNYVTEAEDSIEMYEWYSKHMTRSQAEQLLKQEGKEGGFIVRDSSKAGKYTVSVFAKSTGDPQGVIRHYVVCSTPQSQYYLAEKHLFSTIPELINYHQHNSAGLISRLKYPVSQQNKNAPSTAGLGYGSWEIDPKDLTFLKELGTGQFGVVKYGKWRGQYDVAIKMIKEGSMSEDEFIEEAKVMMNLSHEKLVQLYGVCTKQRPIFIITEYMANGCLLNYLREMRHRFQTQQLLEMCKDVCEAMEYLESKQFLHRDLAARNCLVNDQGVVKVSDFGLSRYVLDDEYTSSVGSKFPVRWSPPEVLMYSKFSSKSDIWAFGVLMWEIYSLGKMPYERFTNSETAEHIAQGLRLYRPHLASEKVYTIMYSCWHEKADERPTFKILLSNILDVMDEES

In the case of `C=CC(=O)N1CCSc2c(-c3c(F)cc(C(N)=O)c4[nH]c5ccccc5c34)cccc21` (single isomer, unassigned) [Comparative Example 23, 4-(4-Acryloyl-3,4-dihydro-2H-benzo[b][1,4]thiazin-8-yl)-3-fluoro-9H-carbazole-1-carboxamide], the concentration for half-maximal inhibition (IC50) on human recombinant Btk (Table 4, Comparative Example, read-out: Comparative Example Btk IC50) was found to be 4.4 nM; in the assay with Ramos RA1 B cells (Homo sapiens, Table 4, Comparative Example, read-out: Comparative Example Ramos IC50), 150 nM.
`C=CC(=O)N1CCc2c(cccc2-c2c(F)cc(C(N)=O)c3[nH]c4ccccc4c23)C1` (single isomer, unassigned) [Example 5, 4-(2-Acryloyl-1,2,3,4-tetrahydroisoquinolin-5-yl)-3-fluoro-9H-carbazole-1-carboxamide]: the “Potency Difference Btk: ratio of IC50 value for the Comparative Example to that for the corresponding Example” value (“Potency Difference Btk: ratio” below) on human recombinant Btk is 60. In addition, the half-maximal inhibitory concentration (IC50) was found to be 0.067 nM on human recombinant Btk (setting [1]), 0.067 nM at human recombinant Btk (setting [2]), 2.4 nM in the assay with Ramos RA1 B cells (setting [3]) and 2.4 nM in the assay on Ramos RA1 B cells (setting [4]). Also, the “Potency Difference Ramos: ratio of IC50 value for the Comparative Example to that for the corresponding Example” value (from here on “Potency Difference Ramos: ratio”) in the assay on Ramos RA1 B cells is 30.
`C=CC(=O)N1CCc2c(cccc2-c2c(F)cc(C(N)=O)c3[nH]c4c(c23)CC(F)(F)CC4)C1` (single isomer, unassigned) [Example 6, 5-(2-Acryloyl-1,2,3,4-tetrahydroisoquinolin-5-yl)-3,3,6-trifluoro-2,3,4,9-tetrahydro-1H-carbazole-8-carboxamide]: the “Potency Difference Btk: ratio” value on human recombinant Btk is reported as 38. Besides, the IC50 is 0.12 nM on human recombinant Btk (setting [1]), 0.12 nM at human recombinant Btk (setting [2]), 23 nM in the assay on Ramos RA1 B cells (setting [3]) and 23 nM in the assay with Ramos RA1 B cells (setting [4]). The “Potency Difference Ramos: ratio” value in the assay with Ramos RA1 B cells is listed as greater than 13.
For `C=CC(=O)N1CCc2c(cccc2-c2c(F)cc(C(N)=O)c3[nH]c4cc(C(F)(F)F)ccc4c23)C1` (single isomer, unassigned) [Example 7, 4-(2-Acryloyl-1,2,3,4-tetrahydroisoquinolin-5-yl)-3-fluoro-7-(trifluoromethyl)-9H-carbazole-1-carboxamide], the “Potency Difference Btk: ratio” value on human recombinant Btk was 78. Moreover, the half-inhibitory concentration (IC50) was found to be 0.18 nM on human recombinant Btk (setting [1]), 0.18 nM on human recombinant Btk (setting [2]), 11 nM with Ramos RA1 B cells (setting [3]) and 10.7 nM with Ramos RA1 B cells (setting [4]). For the same compound, the “Potency Difference Ramos: ratio” value in the assay with Ramos RA1 B cells is greater than 27.
As for `C=CC(=O)N1CCOc2c(-c3c(F)cc(C(N)=O)c4[nH]c5ccccc5c34)cccc21` (single isomer, unassigned) [Example 8, 4-(4-Acryloyl-3,4-dihydro-2H-benzo[b][1,4]oxazin-8-yl)-3-fluoro-9H-carbazole-1-carboxamide], the “Potency Difference Btk: ratio” value at human recombinant Btk was 19. Moreover, the half-maximal inhibitory concentration (IC50) on human recombinant Btk (setting [1]) came to 0.077 nM; on human recombinant Btk (setting [2]) it was 0.077 nM; with Ramos RA1 B cells (setting [3]) it was 6.9 nM; in the assay on Ramos RA1 B cells (setting [4]) it was 6.9 nM. In addition, in the assay with Ramos RA1 B cells, the “Potency Difference Ramos: ratio” value is 9.4.
In the case of `C=CC(=O)N1CCCOc2c(-c3c(F)cc(C(N)=O)c4[nH]c5cc(C(F)(F)F)ccc5c34)cccc21` (single isomer, unassigned) [Example 12, 4-(5-Acryloyl-2,3,4,5-tetrahydrobenzo[b][1,4]oxazepin-9-yl)-3-fluoro-7-(trifluoromethyl)-9H-carbazole-1-carboxamide], the “Potency Difference Btk: ratio” value on human recombinant Btk is 26. The half-inhibitory concentration (IC50) on human recombinant Btk (setting [1]) is 0.37 nM; at human recombinant Btk (setting [2]) it was 0.37 nM; in the assay on Ramos RA1 B cells (setting [3]), 6.2 nM; with Ramos RA1 B cells (setting [4]), 6.2 nM. In the assay with Ramos RA1 B cells, the “Potency Difference Ramos: ratio” value was found to be 48.
As to `C=CC(=O)N1CCSc2c(-c3c(F)cc(C(N)=O)c4[nH]c5ccccc5c34)cccc21` (single isomer, unassigned) [Example 14, 4-(4-acryloyl-3,4-dihydro-2H-benzo[b][1,4]thiazin-8-yl)-3-fluoro-9H-carbazole-1-carboxamide], the “Potency Difference Btk: ratio” value at human recombinant Btk is on record as 60. Moreover, the IC50 was 0.073 nM on human recombinant Btk (setting [1]), 0.073 nM at human recombinant Btk (setting [2]), 7.8 nM in the assay on Ramos RA1 B cells (setting [3]) and 7.8 nM with Ramos RA1 B cells (setting [4]). Besides, the “Potency Difference Ramos: ratio” value in the assay with Ramos RA1 B cells is on record as 19.

Source of the values: US10023534B2 (BRISTOL-MYERS SQUIBB COMPANY, priority 2014, dated 2018).
